Assay results reported in patent US10487093B2, “Heterocyclic compounds, in particular 2-oxo-4,4,5,5,6,6,7,7-octahydrobenzoxazole derivatives, and their use as antibacterial compounds” (priority 2016, dated 2019).
In brackets after ≈: the same amount, converted by molar mass.

How the values were obtained:
[1] = test system: human hepatic cell line (HepG2 ATCC HB-8065); test: Human cell viability assay (CellTiter-Glo); conditions: Homo sapiens, HepG2, 24 h, read-out: IC50 (μg/mL) HepG2
[2] = test system: Staphylococcus aureus ATCC 29213; test: MIC, broth microdilution (CLSI) versus planktonic bacteria; assay type: cell-based; conditions: ATCC29213; Staphylococcus aureus ATCC 29213; 16-20 h; mode of three independent experiments; read-out: MIC, Sa ATCC 29213
[3] = test system: Haemophilus influenzae ATCC 49247; test: as above; assay type: cell-based; conditions: ATCC49247; Haemophilus influenzae ATCC 49247; 16-20 h; mode of three independent experiments; read-out: MIC, Hi ATCC 49247
[4] = test system: Streptococcus pneumoniae ATCC 49619; test: as above; assay type: cell-based; conditions: ATCC49619; Streptococcus pneumoniae ATCC 49619; 16-20 h; mode of three independent experiments; read-out: MIC, Sp ATCC 49619
[5] = test system: Acinetobacter baumannii NCTC 13420; test: as above; assay type: cell-based; conditions: NCTC13420; Acinetobacter baumannii NCTC 13420; 16-20 h; mode of three independent experiments; read-out: MIC, Ab NCTC 13420
[6] = test system: Escherichia coli ATCC 25922; test: as above; assay type: cell-based; conditions: ATCC25922; Escherichia coli ATCC 25922; 16-20 h; mode of three independent experiments; read-out: MIC, Ec ATCC 25922
[7] = test system: Mycobacterium smegmatis ATCC 19420; test: as above; assay type: cell-based; conditions: Mycolicibacterium smegmatis, ATCC19420, 16-20 h, mode of three independent experiments, read-out: MIC, Ms ATCC 19420
[8] = test system: Pseudomonas aeruginosa ATCC 27853; test: as above; assay type: cell-based; conditions: ATCC27853; Pseudomonas aeruginosa ATCC 27853; 16-20 h; mode of three independent experiments; read-out: MIC, Pa ATCC 27853
[9] = test system: Enterobacter cloacae NCTC 13406; test: as above; assay type: cell-based; conditions: NCTC13406; Enterobacter cloacae NCTC 13406; 16-20 h; mode of three independent experiments; read-out: MIC, Ecl NCTC 13406
[10] = test system: E. coli ATCC BAA-2452; test: as above; assay type: cell-based; conditions: Escherichia coli ATCC BAA-2452; 16-20 h; mode of three independent experiments; read-out: MIC, Ec ATCC BAA 2452
[11] = test system: E. coli NCTC 13476; test: as above; assay type: cell-based; conditions: NCTC13476; Escherichia coli NCTC 13476; 16-20 h; mode of three independent experiments; read-out: MIC, Ec NCTC 13476
[12] = test system: E. coli MG1655 S83L; assay type: cell-based, Escherichia coli; conditions: compared to the isogenic parent strain E. coli MG1655; S83L mutation on DNA gyrase subunit GyrA
[13] = test system: fluoroquinolone-resistant Enterococcus faecium ATCC 700221; test: MIC, broth microdilution (CLSI) versus planktonic bacteria; assay type: cell-based; conditions: ATCC700221, 16-20 h, mode of three independent experiments, read-out: MIC, Efm ATCC 700221
[14] = test system: Enterococcus faecium ATCC 19434; test: as above; assay type: cell-based; conditions: ATCC19434, 16-20 h, mode of three independent experiments, read-out: MIC, Efm ATCC 19434
[15] = test system: E. coli MG1655; test: as above; assay type: cell-based, Escherichia coli; conditions: Escherichia coli, MG1655, read-out: MIC, Ec MG1655 WT
[16] = test system: Acinetobacter baumannii ATCC 19606; test: as above; assay type: cell-based; conditions: ATCC19606; Acinetobacter baumannii ATCC 19606; 16-20 h; mode of three independent experiments; read-out: MIC, Ab ATCC 19606
[17] = test system: E. coli MG1655 D87G; assay type: cell-based, Escherichia coli; conditions: compared to the isogenic parent strain E. coli MG1655; D87G mutation on DNA gyrase subunit GyrA
[18] = test system: Enterococcus faecalis ATCC 29212; test: MIC, broth microdilution (CLSI) versus planktonic bacteria; assay type: cell-based; conditions: ATCC29212, 16-20 h, mode of three independent experiments, read-out: MIC, Ef ATCC 29212
[19] = test system: Neisseria meningitidis ATCC 13090; test: as above; assay type: cell-based; conditions: ATCC13090, 16-20 h, mode of three independent experiments

Structure (SMILES) | IC50 [1] [µg/mL] | MIC [2] [µg/mL] | MIC [3] [µg/mL] | MIC [4] [µg/mL] | MIC [5] [µg/mL] | MIC [6] [µg/mL] | MIC [7] [µg/mL] | MIC [8] [µg/mL] | MIC [9] [µg/mL] | MIC [10] [µg/mL] | MIC [11] [µg/mL] | Fold increase in MIC, E. coli MG1655 S83L [12] [fold] | MIC [13] [µg/mL] | MIC [14] [µg/mL] | MIC [15] [µg/mL] | MIC [16] [µg/mL] | Fold increase in MIC, E. coli MG1655 D87G [17] [fold] | MIC [18] [µg/mL] | MIC [19] [µg/mL]
NCCOc1ccc2ccc(=O)n(CCN[C@H]3CC[C@H]4[C@@H](C3)OC(=O)N4c3ccc4c(n3)NC(=O)CO4)c2c1 [Compound 9, 1-(2-{[(3aS,6S,7aR)-2-oxo-3-{3-oxo-2H,3H,4H-pyrido[3,2-b][1,4]oxazin-6-yl}-octahydro-1,3-benzoxazol-6-yl]amino}ethyl)-7-(2-aminoethoxy)-1,2-dihydroquinolin-2-one] | > 100 | 1 to 10 (≈ 1.87 to 18.7 µM) | 10 to 100 (≈ 18.7 to 187 µM) | 10 to 100 (≈ 18.7 to 187 µM) | > 100 | 1 to 10 (≈ 1.87 to 18.7 µM) | > 100 | 1 to 10 (≈ 1.87 to 18.7 µM) | > 100 |  |  |  |  |  |  |  |  |  | 
N#Cc1ccc2ccc(=O)n(CCN(CCN)[C@H]3CC[C@H]4[C@@H](C3)OC(=O)N4c3ccc4c(n3)NC(=O)CO4)c2c1 [Compound 58, 1-(2-{[(3aS,6S,7aR)-2-oxo-3-{3-oxo-2H,3H,4H-pyrido[3,2-b][1,4]oxazin-6-yl}-octahydro-1,3-benzoxazol-6-yl](2-aminoethyl)amino}ethyl)-2-oxo-1,2-dihydroquinoline-7-carbonitrile] | > 100 | < 1 | > 100 | > 100 | > 100 | 10 to 100 (≈ 18.4 to 184 µM) | 1 to 10 (≈ 1.84 to 18.4 µM) | 1 to 10 (≈ 1.84 to 18.4 µM) | > 100 |  |  |  |  |  |  |  |  |  | 
CCCOc1ccc2ccc(=O)n(CCN[C@H]3CC[C@H]4[C@H](C3)OC(=O)N4c3ccc4c(n3)NC(=O)CO4)c2c1 [Compound 91, 1-(2-{[(3aS,6S,7aS)-2-oxo-3-{3-oxo-2H,3H,4H-pyrido[3,2-b][1,4]oxazin-6-yl}-octahydro-1,3-benzoxazol-6-yl]amino}ethyl)-7-propoxy-1,2-dihydroquinolin-2-one] | 10 to 100 (≈ 18.7 to 187 µM) | < 1 | < 1 | < 1 | < 1 | < 1 |  | 10 to 100 (≈ 18.7 to 187 µM) | 1 to 10 (≈ 1.87 to 18.7 µM) | < 1 | 1 to 10 (≈ 1.87 to 18.7 µM) | 0.5 | 1 to 10 (≈ 1.87 to 18.7 µM) | 1 to 10 (≈ 1.87 to 18.7 µM) | < 1 | < 1 | 1 | 1 to 10 (≈ 1.87 to 18.7 µM) | 
NCCOc1ccc2ccc(=O)n(CCN[C@H]3CC[C@H]4[C@@H](C3)OC(=O)N4c3ccc4c(n3)NC(=O)CO4)c2n1 [Compound 10, 1-(2-{[(3aS,6S,7aR)-2-oxo-3-{3-oxo-2H,3H,4H-pyrido[3,2-b][1,4]oxazin-6-yl}-octahydro-1,3-benzoxazol-6-yl]amino}ethyl)-7-(2-aminoethoxy)-1,2-dihydro-1,8-naphthyridin-2-one] | > 100 | 10 to 100 (≈ 18.7 to 187 µM) | 10 to 100 (≈ 18.7 to 187 µM) | 10 to 100 (≈ 18.7 to 187 µM) | > 100 | 1 to 10 (≈ 1.87 to 18.7 µM) | > 100 | 1 to 10 (≈ 1.87 to 18.7 µM) | > 100 |  |  |  |  |  |  |  |  |  | 
COc1ccc2ccc(=O)n(CCN[C@H]3CC[C@H]4[C@H](C3)OC(=O)N4c3ccc4c(n3)NC(=O)CS4)c2n1 [Compound 61, 1-(2-{[(3aS,6S,7aS)-2-oxo-3-{3-oxo-2H,3H,4H-pyrido[3,2-b][1,4]thiazin-6-yl}-octahydro-1,3-benzoxazol-6-yl]amino}ethyl)-7-methoxy-1,2-dihydro-1,8-naphthyridin-2-one] | 10 to 100 (≈ 19.1 to 191 µM) | < 1 | < 1 | < 1 | < 1 | < 1 |  | < 1 | < 1 | < 1 | < 1 | 1 | < 1 | < 1 | < 1 | < 1 | 1 | < 1 | 
NCCCOc1ccc2ccc(=O)n(CCN[C@H]3CC[C@H]4[C@@H](C3)OC(=O)N4c3ccc4c(n3)NC(=O)CO4)c2n1 [Compound 5, 1-(2-{[(3aS,6S,7aR)-2-oxo-3-{3-oxo-2H,3H,4H-pyrido[3,2-b][1,4]oxazin-6-yl}-octahydro-1,3-benzoxazol-6-yl]amino}ethyl)-7-(3-aminopropoxy)-1,2-dihydro-1,8-naphthyridin-2-one] | > 100 | 1 to 10 (≈ 1.82 to 18.2 µM) | > 100 | 10 to 100 (≈ 18.2 to 182 µM) | > 100 | 10 to 100 (≈ 18.2 to 182 µM) | 1 to 10 (≈ 1.82 to 18.2 µM) | 1 to 10 (≈ 1.82 to 18.2 µM) | > 100 |  |  |  |  |  |  |  |  |  | 
O=C1COc2ccc(N3C(=O)O[C@@H]4C[C@@H](NCCn5c(=O)ccc6ccc(OCCO)nc65)CC[C@@H]43)nc2N1 [Compound 6, 1-(2-{[(3aS,6S,7aR)-2-oxo-3-{3-oxo-2H,3H,4H-pyrido[3,2-b][1,4]oxazin-6-yl}-octahydro-1,3-benzoxazol-6-yl]amino}ethyl)-7-(2-hydroxyethoxy)-1,2-dihydro-1,8-naphthyridin-2-one] | > 100 | 1 to 10 (≈ 1.86 to 18.6 µM) | 1 to 10 (≈ 1.86 to 18.6 µM) | < 1 | 10 to 100 (≈ 18.6 to 186 µM) | 1 to 10 (≈ 1.86 to 18.6 µM) | < 1 | 1 to 10 (≈ 1.86 to 18.6 µM) | 10 to 100 (≈ 18.6 to 186 µM) |  |  |  |  |  |  |  |  |  | 
N#Cc1ccc2ccc(=O)n(CCN[C@@H]3CC[C@@H]4[C@@H](C3)OC(=O)N4c3ccc4c(n3)NC(=O)CO4)c2c1 [Compound 59, 1-(2-{[(3aR,6R,7aR)-2-oxo-3-{3-oxo-2H,3H,4H-pyrido[3,2-b][1,4]oxazin-6-yl}-octahydro-1,3-benzoxazol-6-yl]amino}ethyl)-2-oxo-1,2-dihydroquinoline-7-carbonitrile] | 10 to 100 (≈ 20 to 200 µM) | < 1 | < 1 | < 1 | < 1 | < 1 |  | < 1 | < 1 | < 1 | < 1 | 1 | < 1 | < 1 | < 1 | < 1 | 1 | < 1 | 
NS(=O)(=O)c1ccc(Oc2ccc3ccc(=O)n(CCN[C@@H]4CC[C@@H]5[C@@H](C4)OC(=O)N5c4ccc5c(n4)NC(=O)CO5)c3n2)cc1 [Compound 8, 4-{[8-(2-{[(3aR,6R,7aR)-2-oxo-3-{3-oxo-2H,3H,4H-pyrido[3,2-b][1,4]oxazin-6-yl}-octahydro-1,3-benzoxazol-6-yl]amino}ethyl)-7-oxo-7,8-dihydro-1,8-naphthyridin-2-yl]oxy}benzene-1-sulphonamide] | 10 to 100 (≈ 15.4 to 154 µM) | < 1 | < 1 | 1 to 10 (≈ 1.54 to 15.4 µM) | 10 to 100 (≈ 15.4 to 154 µM) | 1 to 10 (≈ 1.54 to 15.4 µM) | < 1 | 10 to 100 (≈ 15.4 to 154 µM) | 10 to 100 (≈ 15.4 to 154 µM) |  |  |  |  |  |  |  |  |  | 
N#Cc1cccc(-c2cccc(CN[C@H]3CC[C@H]4[C@@H](C3)OC(=O)N4c3ccc4c(n3)NC(=O)CO4)c2O)n1 [Compound 18, 6-[3-({[(3aS,6S,7aR)-2-oxo-3-{3-oxo-2H,3H,4H-pyrido[3,2-b][1,4]oxazin-6-yl}-octahydro-1,3-benzoxazol-6-yl]amino}methyl)-2-hydroxyphenyl]pyridine-2-carbonitrile] | 1 to 10 (≈ 1.95 to 19.5 µM) | < 1 | 1 to 10 (≈ 1.95 to 19.5 µM) | < 1 | < 1 | < 1 |  | 1 to 10 (≈ 1.95 to 19.5 µM) | < 1 | 1 to 10 (≈ 1.95 to 19.5 µM) | 1 to 10 (≈ 1.95 to 19.5 µM) | 2 |  |  | < 1 | < 1 | 1 |  | < 1
